The results in this text go back to patent EP4417607A1, “HETEROCYCLIC COMPOUND AS SOS1 INHIBITOR AND USES THEREOF” (Nanjing Zaiming Pharmaceutical Co., Ltd., priority 2021, dated 2023).

One test has as its system H358 cells. Briefly: H358 cell proliferation inhibition (CellTiter-Glo luminescent cell viability assay). It is filed as cell-based. The note with it: Homo sapiens, NCI-H358, 168 h, 7 days. As to the method:
The effect of the compounds of the present invention on H358 cell proliferation was assessed by CellTiter-Glo luminescent cell viability assay kit method.
H358 cells (ATCC, CRL-5807) were cultured in RPMI1640 (Hyclone, SH30256.01) complete medium containing 10% FBS (Gibco, 10100147) and 100 U/mL penicillin-streptomycin mixed solution (Gibco, 15140163). When the cells grew to 80-90%, the cells were digested, pipetted, and seeded in a 96-well plate (Corning, 4515) at 3000 cells/well (180 µL RPMI1640 complete medium), and then the 96-well plate was incubated overnight in an incubator at 37 °C with 5% CO2.
After incubation overnight, 20 µL of a diluted test compound was added to each well using a multi-channel pipette, and the 96-well plate was placed in an incubator at 37 °C with 5% CO2 for further culture. After 7 days, 100 µL of the supernatant was pipetted and discarded. 50 µL of CellTiter-Glo® 3D Cell Viability Assay liquid was added to each well. The plate was shaken at room temperature at 450 rpm for 30 min. After the cells were completely lysed, "Luminescence" on the microplate reader was selected for plate reading. In this experiment, the cell-free group (replaced with 1640 medium) was used as the 100% inhibition group, and the compound-free group in which the cell was added was used as the 0% inhibition group.
The inhibition percentage of H358 cell proliferation by the compounds of the present invention could be calculated by the following formula: [formula]
(§1) IC50 values of the compounds were calculated from 8 concentration points using XLfit (ID Business Solutions Ltd., UK) software by the following formula: Y = Bottom + (Top−Bottom)/(1+10^(∧)((logIC50−X)×slopefactor)) [formula]
Y is the inhibition percentage, X is the logarithmic value of the concentration of the test compound, Bottom is the minimum inhibition percentage, Top is the maximum inhibition percentage, and slope factor is the slope coefficient of the curve.
In general terms: In ATP-based viability assays light output follows the ATP content of the culture.

Test [1] deals with p-ERK pathway in H358 cells. Briefly: p-ERK pathway inhibition in H358 cells (Advanced phospho-ERK (Thr202/Tyr204) cellular kit, HTRF). The format is cell-based. To be noted: Homo sapiens, NCI-H358, 1 h compound incubation. As to the method:
The effect of the compounds of the present invention on H358 cell p-ERK pathway was assessed by Advanced phospho-ERK (Thr202/Tyr204) cellular kit method.
The experimental procedures were summarized as follows: H358 cells (ATCC, CRL-5807) were cultured in RPMI1640 (ThermoFisher, A1049101) complete medium containing 10% FBS (Gibco, 10100147) and 100 U/mL penicillin-streptomycin mixed solution (Gibco, 15140163). When the coverage of the cells in the culture vessel reached 80-90%, the cells were pipetted and seeded in a 96-well plate (Corning, 3599) at 50000 cells/well (90 µL RPMI1640 complete medium), and the plate was left to stand for 5 min, cultured in an incubator at 37 °C with 5% CO2 for 6 h, replaced with a serum-free RPMI1640, and starved overnight.
After incubation overnight, 10 µL of a diluted test compound was added to each well using a multi-channel pipette, and the 96-well plate was cultured in an incubator at 37 °C with 5% CO2 for 1 h. The supernatant was poured. The cells were washed once with PBS. 50 µL of a lysis buffer (Advanced phospho-ERK (Thr202/Tyr204) cellular kit, 64AERPEH) was added to each well. The plate was shaken at room temperature at 450 rpm for 1 h. After the cells were completely lysed, 16 µL of the supernatant was added to a 384-well plate (PE, 6007299), mixed energy donor Eu and energy acceptor D2 (D2/Eu = 1:1) were added, and the plate was incubated at room temperature for 4 h. HTRF on the microplate reader was selected for plate reading, Ratio = Signal 665 nm/Signal 620 nm × 10^4. In this experiment, the cell-free group (replaced with 1640 medium) was used as the 100% inhibition group, and the compound-free group in which the cell was added was used as the 0% inhibition group.
The inhibition percentage of H358 cell p-ERK pathway by the compounds of the present invention could be calculated by the following formula: [formula]
as §1
Y is the inhibition percentage, X is the logarithmic value of the concentration of the test compound, Bottom is the minimum inhibition percentage, Top is the maximum inhibition percentage, and slope factor is the slope coefficient of the curve. The default fitted curve was used to fit the slope of the S-shaped curve to determine the IC50 value. Table 2. Results of p-ERK inhibition test by the compounds of the present invention
(In general: Time-resolved FRET reads energy transfer from a long-lived donor to a nearby acceptor.)

On to `Cc1nc(N[C@H](C)c2cccc(C(F)F)c2F)c2cn(C3(CF)CC3)c(=O)c(N3CCN4CCC[C@@H]4C3)c2n1` (stereo in doubt) [Example 97, 4-(((R)-1-(3-(difluoromethyl)-2-fluorophenyl)ethyl)amino)-6-(1-(fluoromethyl)cyclopropyl)-8-((R)-hexahydropyrrolo[1,2-a]pyrazin-2(1H)-yl)-2-methylpyrido[4,3-d]pyrimidine-7(6H)-one], for which the results for the IC50 (with H358 cells; in test [1]) were 11.8 nM and 66.3 nM, respectively.
On to `Cc1nc(N[C@H](C)c2cccc(C(F)(F)C(C)(C)C#N)c2)c2cn(C3(CF)CC3)c(=O)cc2n1` [Example 6, (R)-3,3-difluoro-3-(3-(1-((6-(1-(fluoromethyl)cyclopropyl)-2-methyl-7-oxo-6,7-dihydropyrido[4,3-d]pyrimidin-4-yl)amino)ethyl)phenyl)-2,2-dimethylpropanenitrile], for which the IC50 (usually the concentration needed to halve the response being measured) amounted to 80 nM in the test with H358 cells and 112 nM in test [1].
As for `COc1c(=O)n(C2(CF)CC2)cc2c(N[C@H](C)c3cccc(C(C)(F)F)c3F)nc(C)nc12` [Example 11, (R)-4-((1-(3-(1,1-difluoroethyl)-2-fluorophenyl)ethyl)amino)-6-(1-(fluoromethyl)cyclopropyl)-8-methoxy-2-methylpyrido[4,3-d]pyrimidine-7(6H)-one], the IC50 in the test on H358 cells was found to be 50.8 nM; in test [1], 88.2 nM.
Taken in the same sequence, the figures for `Cc1nc(N[C@H](C)c2cccc([N+](=O)[O-])c2C)c2cn(C3(CF)CC3)c(=O)cc2n1` [Example 13] were 54.1 nM and 131 nM.
Taken in the same sequence, the figures for `COc1c(=O)n(C2(CF)CCN(C(C)=O)C2)cc2c(N[C@H](C)c3cccc([N+](=O)[O-])c3C)nc(C)nc12` (stereo partly drawn) [Example 16, 6-(1-acetyl-3-(fluoromethyl)pyrrolidin-3-yl)-8-methoxy-2-methyl-4-(((R)-1-(2-methyl-3-nitrophenyl)ethyl)amino)pyrido[4,3-d]pyrimidine-7(6H)-one] were 187 nM and 28 nM.
For `COc1c(=O)n(C2(C)CCN(C(C)=S)C2)cc2c(N[C@H](C)c3cccc(C(F)F)c3F)nc(C)nc12` (stereo partly shown) [Example 19], in that order: 69.6 nM and 52.5 nM.
For the compound `Cc1nc(N[C@H](C)c2cccc(S(F)(F)(F)(F)F)c2)c2cn(N3CCOCC3)c(=O)c(-c3ccc(C#N)nc3)c2n1` [Example 22, (R)-5-(2-methyl-6-morpholinyl-7-oxo-4-((1-(3-(pentafluoro-λ^6-sulfanyl)phenyl)ethyl)amino)-6,7-dihydropyrido[4,3-d]pyrimidin-8-yl)pyridinecarbonitrile], the IC50 came to 129 nM with H358 cells and 180 nM in test [1].
As to `COc1c(=O)n(N2CCOCC2)cc2c(N[C@H](C)c3cccc(S(F)(F)(F)(F)F)c3)nc(C)nc12` [Example 25], the results for the IC50 (with H358 cells; in test [1]) were 35.7 nM and 107 nM, respectively.
For `COc1c(=O)n(C2(CF)CC2)cc2c(N[C@H](C)c3cccc([N+](=O)[O-])c3C)nc(C)nc12` [Example 29, (R)-6-(1-(fluoromethyl)cyclopropyl)-8-methoxy-2-methyl-4-((1-(2-methyl-3-nitrophenyl)ethyl)amino)pyrido[4,3-d]pyrimidine-7(6H)-one], in that order: 78.7 nM and 71 nM.
For `[2H]C([2H])([2H])Oc1c(=O)n(C2(CF)CC2)cc2c(N[C@H](C)c3cccc([N+](=O)[O-])c3C)nc(C)nc12` [Example 30, (R)-6-(1-(fluoromethyl)cyclopropyl)-8-(methoxy-d3)-2-methyl-4-((1-(2-methyl-3-nitrophenyl)ethyl)amino)pyrido[4,3-d]pyrimidine-7(6H)-one], in that order: 33.6 nM and 29.5 nM.
Taken in the same sequence, the figures for `[2H]C([2H])([2H])Oc1c(=O)n(C2(CF)CC2)cc2c(N[C@H](C)c3cccc(S(F)(F)(F)(F)F)c3)nc(C)nc12` [Example 31, (R)-6-(1-(fluoromethyl)cyclopropyl)-8-(methoxy-d3)-2-methyl-4-((1-(3-(pentafluoro-λ^6-sulfanyl)phenyl)ethyl)amino)pyrido[4,3-d]pyrimidine-7(6H)-one] were 133 nM and 73 nM.
